Laboratory results taken from ChEMBL document CHEMBL1201862, “PubChem BioAssay data set” (2004).
Calls of active or inactive are those of the source.

What was measured:
Vero [1] = assay: cells; type: functional, cell-based; details: Chlorocebus sabaeus
Vero [2] = assay: cells; type: functional; details: Chlorocebus sabaeus
[3] = target: T1, Microphthalmia-associated transcription factor (Homo sapiens, UniProt O75030); assay: reducers of TRPM1 reporter luminescence, concentration series – cell-based, SK-MEL-5, cherry-picked, set 3, MITF inhibitor project, dose response (AID 493073); type: functional;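 also: SK-MEL-5 melanoma cells with luciferase driven by the MITF target TRPM1 promoter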
T1 sequence (O75030 whole entry): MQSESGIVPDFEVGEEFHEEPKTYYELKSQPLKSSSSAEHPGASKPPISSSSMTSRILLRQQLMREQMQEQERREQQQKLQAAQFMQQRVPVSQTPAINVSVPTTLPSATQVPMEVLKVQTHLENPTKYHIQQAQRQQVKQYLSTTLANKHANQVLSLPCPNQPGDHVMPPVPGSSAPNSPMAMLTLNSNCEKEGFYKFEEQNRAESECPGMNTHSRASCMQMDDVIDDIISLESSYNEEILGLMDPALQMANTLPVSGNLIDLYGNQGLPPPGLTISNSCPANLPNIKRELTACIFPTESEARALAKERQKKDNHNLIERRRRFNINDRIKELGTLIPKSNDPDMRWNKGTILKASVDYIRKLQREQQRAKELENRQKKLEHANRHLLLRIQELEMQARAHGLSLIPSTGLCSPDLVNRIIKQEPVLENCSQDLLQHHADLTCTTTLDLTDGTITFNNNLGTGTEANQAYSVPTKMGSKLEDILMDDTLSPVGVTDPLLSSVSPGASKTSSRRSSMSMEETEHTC

A-375 [4] = assay: MITF: Counter assay: A375 proliferation Measured in Cell-Based System Using Plate Reader - 2084-03_Inhibitor_Dose_DryPowder_Activity. [Related pubchem assays (depositor defined):AID488944]; type: functional; details: Homo sapiens
A-375 [5] = assay: proliferation inhibition in MITF-low A375 cells – cell-based, cherry-pick samples, set 2, counter-screen for MITF modulator project, dose response (AID 540335); type: functional; details: Homo sapiens
[6] = target: T2, Long-chain-fatty-acid--AMP ligase FadD28 (Mycobacterium tuberculosis, UniProt P9WQ59); assay: Fluorescence polarization aasay to screen for inhibitors that compete for the binding of FadD28 to a bisubstrate Measured in Biochemical System Using Plate Reader - 2147-01_Inhibitor_Dose_CherryPick_Activity.; type: functional, Mycobacterium tuberculosis H37Rv
T2 sequence (P9WQ59 whole entry): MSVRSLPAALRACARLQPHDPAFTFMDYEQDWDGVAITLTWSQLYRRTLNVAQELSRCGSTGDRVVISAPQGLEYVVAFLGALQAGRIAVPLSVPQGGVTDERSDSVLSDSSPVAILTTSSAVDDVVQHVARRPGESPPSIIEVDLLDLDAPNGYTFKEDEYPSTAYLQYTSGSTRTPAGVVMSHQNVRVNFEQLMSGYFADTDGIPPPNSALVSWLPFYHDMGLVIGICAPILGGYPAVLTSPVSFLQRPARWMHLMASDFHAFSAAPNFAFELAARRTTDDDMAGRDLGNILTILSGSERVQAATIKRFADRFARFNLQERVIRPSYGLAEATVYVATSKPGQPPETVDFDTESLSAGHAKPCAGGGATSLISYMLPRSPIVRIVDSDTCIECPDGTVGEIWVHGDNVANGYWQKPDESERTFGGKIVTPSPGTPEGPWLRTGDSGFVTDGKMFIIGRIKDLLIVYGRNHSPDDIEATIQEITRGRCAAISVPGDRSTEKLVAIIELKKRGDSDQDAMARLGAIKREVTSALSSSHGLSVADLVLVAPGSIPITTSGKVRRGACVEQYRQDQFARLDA

[7] = system: Streptococcus sp. 'group A'; assay: Streptococcus pyogenes SK(-)GAS viability under kanamycin – luminescence, BacTiterGlo, confirmation, counter-screen for streptokinase expression inhibitor project, dose response (AID 1900); type: functional, organism-based
Streptokinase A = target: T3, Streptokinase A (Streptococcus pyogenes serotype M1, UniProt P10520); assay: viability-normalized secreted streptokinase activity reduction – plasminogen activation absorbance, OD405, dose response (AID 1914); type: functional, Streptococcus pyogenes M1 GAS;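 also: secreted streptokinase activity via plasminogen activation per viability signal from cell pellet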
T3 sequence (P10520 whole entry): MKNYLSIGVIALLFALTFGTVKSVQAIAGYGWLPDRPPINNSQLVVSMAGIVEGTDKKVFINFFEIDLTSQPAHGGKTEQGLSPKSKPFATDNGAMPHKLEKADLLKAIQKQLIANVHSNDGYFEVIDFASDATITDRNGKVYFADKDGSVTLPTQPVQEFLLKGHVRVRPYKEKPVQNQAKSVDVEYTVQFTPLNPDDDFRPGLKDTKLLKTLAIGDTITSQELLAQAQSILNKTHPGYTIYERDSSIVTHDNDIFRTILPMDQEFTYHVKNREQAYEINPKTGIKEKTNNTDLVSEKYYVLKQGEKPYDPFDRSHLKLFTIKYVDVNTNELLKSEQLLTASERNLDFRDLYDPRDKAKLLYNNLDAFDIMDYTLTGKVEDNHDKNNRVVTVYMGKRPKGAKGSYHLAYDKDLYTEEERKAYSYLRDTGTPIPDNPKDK

Streptococcus = assay: GAS UMAA2166 growth inhibition – luminescence, BacTiterGlo, counter-screen for streptokinase expression inhibitor project, dose response (AID 1915); type: functional, organism-based;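 also: potency for reduction of bacterial viability or growth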
HeLa = assay: ATP-based viability loss in HeLa cells – cell-based, CellTiter-Glo luminescence, cherry-pick samples, cytotoxicity control for MITF activator project, dose response (AID 540259); type: functional; details: Homo sapiens
[8] = target: E3 ubiquitin-protein ligase Mdm2 (Homo sapiens, UniProt Q00987); assay: MDM2-luc reporter signal enhancers, multi-concentration potency testing, MDM2 ubiquitin-protein ligase inhibitor program, whole-cell format, luminescence detection, 384-well microplate (AID 1394); type: functional;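 also: MDM2 E3 inhibitors raise luminescence so EC50 is for signal enhancement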
Sequence of E3 ubiquitin-protein ligase Mdm2 (Q00987 whole entry): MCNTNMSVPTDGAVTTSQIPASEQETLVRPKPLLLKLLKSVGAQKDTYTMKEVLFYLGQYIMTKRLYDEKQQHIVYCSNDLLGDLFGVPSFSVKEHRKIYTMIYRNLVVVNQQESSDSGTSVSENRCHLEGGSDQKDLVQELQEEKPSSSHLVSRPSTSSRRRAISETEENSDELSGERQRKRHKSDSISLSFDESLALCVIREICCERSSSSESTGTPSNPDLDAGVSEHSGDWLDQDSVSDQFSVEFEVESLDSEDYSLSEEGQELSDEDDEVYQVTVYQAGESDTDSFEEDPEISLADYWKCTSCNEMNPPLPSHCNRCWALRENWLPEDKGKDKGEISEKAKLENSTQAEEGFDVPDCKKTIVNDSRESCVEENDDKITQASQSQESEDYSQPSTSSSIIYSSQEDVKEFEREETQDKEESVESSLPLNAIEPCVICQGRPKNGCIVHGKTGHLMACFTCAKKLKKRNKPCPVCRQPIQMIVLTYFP

[9] = HEK-293T viability loss after treatment – luminescence, T-cell screen hits, cytotoxicity control for TCR NF-kB inhibitor project, dose response (AID 489026); type: functional, cell-based;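 also: cells exposed to compound about 14 hours before the viability readout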
[10] = target: T4, Heat shock factor protein 1 (Mus musculus, UniProt P38532); assay: enhancement of HSF1-driven luciferase signal – cell-based, NIH3T3, luminescence, dose retest, confirmation (AID 435004); type: functional;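 also: stress induced by proteasome inhibitor MG132 added 30 min after compound; luciferase reporter driven by HSF1 response element in NIH3T3 cells; actives raise luminescence as potentiators of the MG132 stress response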
T4 sequence (P38532 whole entry): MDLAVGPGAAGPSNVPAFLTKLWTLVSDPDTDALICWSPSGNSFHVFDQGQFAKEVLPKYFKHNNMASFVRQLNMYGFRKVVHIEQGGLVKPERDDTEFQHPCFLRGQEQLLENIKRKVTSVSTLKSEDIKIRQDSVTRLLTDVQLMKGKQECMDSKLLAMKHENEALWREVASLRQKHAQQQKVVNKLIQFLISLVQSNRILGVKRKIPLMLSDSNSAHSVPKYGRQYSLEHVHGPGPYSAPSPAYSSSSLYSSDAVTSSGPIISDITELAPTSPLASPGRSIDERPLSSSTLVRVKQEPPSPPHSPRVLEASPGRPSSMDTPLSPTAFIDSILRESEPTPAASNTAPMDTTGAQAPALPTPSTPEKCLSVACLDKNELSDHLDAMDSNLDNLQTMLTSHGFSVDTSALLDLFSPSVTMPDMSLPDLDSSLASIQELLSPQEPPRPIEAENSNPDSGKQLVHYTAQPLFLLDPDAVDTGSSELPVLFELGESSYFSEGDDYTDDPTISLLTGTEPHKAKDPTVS

[11] = reduction of Shn3 3'UTR-driven luciferase in osteoblasts – cell-based, Clone20 osteoblasts, firefly luciferase, cherry-picked, dose response (AID 624132); type: functional;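 also: firefly luciferase luminescence from reporter carrying the Shn3 3'UTR in osteoblasts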
[12] = loss of viability in HepG2 cells – cell-based, CellTiter-Glo, cherry-picked, cytotoxicity control for Shn3 inhibitor project, dose response (AID 624134); type: functional
[13] = non-specific 3'UTR reporter inhibition in Clone20-Shn3RL – cell-based, Renilla luciferase, cherry-picked, counter-screen for Shn3 inhibitor project, dose response (AID 624133); type: functional

ClCCn1cnc2c(SCc3ccccc3)ncnc21
IC50 (Vero [1]): 2.03 µM (active)
CC50 (Vero [2]): > 25 µM (active)

O=C(O)c1cc(N/N=C/C(Cl)=C/c2ccccc2)ccc1Cl
AC50 [3]: 10.4 µM (active)
AC50 (A-375 [4]): > 11 µM (active)
AC50 (A-375 [5]): > 11 µM (active)
AC50 [6]: 13.6 µM (active)

Cc1nc(N)sc1N=Nc1ccc(F)cc1
EC50 [7]: 5.74 µM (active)
EC50 (Streptokinase A): > 150 µM (not active)
EC50 (Streptococcus): > 150 µM (not active)
AC50 (HeLa): 79.5 µM (active)

O=C(NCCc1ccccc1)c1nccc2ccccc12
AC50 (HeLa): 68.6 µM (active)

O=C(/C=C/c1cccc([N+](=O)[O-])c1)n1cnc2ccccc21
EC50 [8]: 1.68 µM (active)
IC50 [9]: > 80 µM (inactive)
EC50 [10]: 1.62 µM (inconclusive)
AC50 [3]: 4.39 µM (active)
AC50 (A-375 [4]): 28.2 µM (active)
AC50 [11]: 0.594 µM (active)
AC50 [12]: > 70 µM (inactive)
AC50 [13]: 14.7 µM (active)

COc1ccc(C)c2sc(N(CCCN(C)C)C(=O)c3ccc4c(c3)OCCO4)nc12
IC50 (Vero [1]): 24.2 µM (active)
